According to patent US9592211B2, “Compositions for improvement of brain function” (GRESPO AB, priority 2012, dated 2017):
Entries after “also recorded” stand apart in the source; their conditions may differ.

Assays:
[1] = tested on: nestin-positive neurons in hippocampal CA1 area; test: Induction of hippocampal neurogenesis (nestin immunohistochemistry), Example 1; assay type: in vivo, Mongolian gerbils; details: old gerbils, 6 month feeding in chow, compared to age matched controls (FIG. 1)
Procedure: After the course of treatment as specified under Materials and Methods, the animals were sacrificed and the brains were analysed histologically to quantitate hippocampal neurogenesis.
Nestin is a marker for immature neurons. Nestin positive cells were found in the hippocampal layer of the pyramidal neurons. […] In some cells long processes that seem to be dendrites extended into deeper layers of the hippocampus, and these processes were nestin positive as well. In all of the CA fields of the hippocampus (CA1-CA3) these cells were structurally similar to pyramidal cells. The structural similarities between nestin positive cells and neurons allow regarding this type of cells as newly generated neurons.
In Example 1. the animals were fed Labofeed B standard chow (from Labofeed company; Andrzej Morawski Feed Production Plant, Kcynia near. Bydgoszcz, Poland) supplemented with test compounds as specified in table 1.
The lipase, protease and amylase were obtained as capsules containing 30,000 USP units/capsule of lipase, 20,000 USP units/capsule of protease, and 3,000 USP units/capsule of amylase) prepared as shown in Table 2. […]
Samplings for immunohistochemistry (one hemisphere of each animal) were postfixed overnight in the same fixative at +4° C. […] Then slices were washed out, placed on histological slides and mounted with Fluorescence Mounting Media (Dako, Denmark). […]

Mongolian gerbils = test: T-maze spontaneous alternation, cognitive function/memory, Example 2; assay type: in vivo; details: old gerbils, feeding in chow, tested once (FIG. 2)
Description: During the course of the treatment, the animals were subjected to T-maze test measuring cognitive function and/or memory as specified under Materials and Methods.
For long-lasting feeding (during 6 month) 75 old male Mongolian gerbils, randomly selected, were used. Those selected were approximately 1.5 years of age at start of the experiment with the mean body weight of 88.0±6 g and 2 years of age at experiment finish.
Subjects were first placed in the start arm of the T Maze. Upon leaving the start arm, subjects chose between entering either the left or the right goal arm. […] The percentage of alternation (number of turns in each goal arm) and total trial duration were recorded.

[2] = tested on: synaptic terminals in hippocampal CA1 zone; test: Synaptic morphology alterations (electron microscopy), Example 4; assay type: in vivo, Mongolian gerbils
Description: In the middle portion of the CA1 stratum radiatum analyzed in the study, the great majority of synaptic inputs are excitatory and they preferentially terminate on the […], Taking into consideration these aspects, we could focus our analyses on the pool of excitatory CA1 spine synapses.
After perfusion the brains were isolated and separated on two hemispheres.
The hippocampus from another hemisphere of each animal was isolated and cut in 400-μm-thick transverse slices by a chopper (McIlwain tissue chopper, Great Britain). […] Tissue slices were then dehydrated in an ascending series of ethanol followed by dry acetone and embedded in EPON resin according to official protocol. The sections were produced by ultramicrotome LKB-8800. Toluidine blue-stained semi-thin (1 μm) sections of hippocampus were used to localize hippocampal CA1 area. For electron microscopy, ultra-thin sections (70 nm) from the middle portion of CA1 stratum pyramidale and stratum radiatum were stained with uranyl acetate and lead citrate.
The images were taken with JEM-100CX (Jeol, Japan) transmission electron microscope at magnification of ×10 000.
Perforated synapse was defined as a synapse with discontinuous PSD. The synapses with more than one spine contacting the same presynaptic terminal were classified as multiple spine boutons (MSB).
For the analysis of SV's distribution, x- and y-coordinates of SV profile centers and points tracing the active zone of a synapse were marked with UTHSCSA ImageTool software (version 3, University of Texas, San Antonio, Tex.; ftp://maxrad6.uthscsa.edu) on digitized micrographs, using the point tool.
AZD and NND quantities were pooled together per group. […]
Estimations of synapse density were carried out on single photos by counting all asymmetric spine synapses (determined by the presence of a spine head with prominent PSD and docked synaptic vesicles (SV) in the active zone of a presynaptic terminal) on the micrograph surface limited by the counting frame (36 mkm^2 test area) followed by calculation of the number of synapses per surface unit area.

In the case of `O=C(O)CCC(=O)C(=O)O` [AKG, alpha-ketoglutaric acid], the “hippocampal neurogenesis (number of nestin-positive neurons per 1 mm of pyramidal layer length in hippocampal CA1 area)” value [1] was “increased hippocampal neurogenesis; also recorded: increase neurogenesis”, the “cognition (percentage of spontaneous alterations in T-maze test)” value (Mongolian gerbils) was “improved cognition” and the “number of SVs (synaptic vesicles) per presynaptic terminal” value ([2]; hippocampal CA1, compared to control old animals (FIG. 6A)) was “increased”. The “number of synaptic terminals (synaptic contacts) per unit area (100 μm^2), increased to” value ([2]; hippocampal CA1, old gerbils after long time treatment, old control three times lower than young (FIG. 4)) was 55% and the “distance from a synaptic vesicle to the active zone (AZD)” value ([2]; hippocampal synapses, old gerbils (FIG. 7)) was “increase of a distance from a vesicle to the active zone”.
